According to PubChem BioAssay AID1918999 (Molecular Pharmacology Branch, DTP, NCI, 2023):
“And” between values parts separate entries of the source, which are not always exact repeats. Equal values may be shown once. Each block holds one molecule with its values, some of them ahead of it.

Tested on: 556581-035-R-J1-PDC complex spheroid growth
Assay: Anticancer human tumor 556581-035-R-J1-PDC patient-derived ovarian carcinoma cell line growth inhibition [AhR]
Conditions: for viability, T/C: stronger effect = lower value
Outline: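 Agents were dosed in half-log steps down from roughly clinical Cmax, or from 10 microM where Cmax was unknown, alone and with AhR antagonists. Read-out: percent test/control growth of tumor spheroids containing HUVEC and MSC stromal cells.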

[1] = curve of first compound, second compound 0.1 µM
[2] = curve of first compound, second compound 0.316 µM
[3] = curve of first compound, second compound 1 µM
[4] = curve of first compound, second compound 3.16 µM
[5] = curve of first compound, second compound 10 µM
[6] = second compound 0.1 µM, first compound 0.0316 µM
[7] = second compound 0.1 µM, first compound 0.1 µM
[8] = second compound 0.1 µM, first compound 0.316 µM
[9] = second compound 0.1 µM, first compound 1 µM
[10] = second compound 0.1 µM, first compound 3.16 µM
[11] = second compound 0.1 µM, first compound 10 µM
[12] = second compound 0.316 µM, first compound 0.0316 µM
[13] = second compound 0.316 µM, first compound 0.1 µM
[14] = second compound 0.316 µM, first compound 0.316 µM
[15] = second compound 0.316 µM, first compound 1 µM
[16] = second compound 0.316 µM, first compound 3.16 µM
[17] = second compound 0.316 µM, first compound 10 µM
[18] = second compound 1 µM, first compound 0.0316 µM
[19] = second compound 1 µM, first compound 0.1 µM
[20] = second compound 1 µM, first compound 0.316 µM
[21] = second compound 1 µM, first compound 1 µM
[22] = second compound 1 µM, first compound 3.16 µM
[23] = second compound 1 µM, first compound 10 µM
[24] = second compound 3.16 µM, first compound 0.0316 µM
[25] = second compound 3.16 µM, first compound 0.1 µM
[26] = second compound 3.16 µM, first compound 0.316 µM
[27] = second compound 3.16 µM, first compound 1 µM
[28] = second compound 3.16 µM, first compound 3.16 µM
[29] = second compound 3.16 µM, first compound 10 µM
[30] = second compound 10 µM, first compound 0.0316 µM
[31] = second compound 10 µM, first compound 0.1 µM
[32] = second compound 10 µM, first compound 0.316 µM
[33] = second compound 10 µM, first compound 1 µM
[34] = second compound 10 µM, first compound 3.16 µM
[35] = second compound 10 µM, first compound 10 µM
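For viability, T/C in this document: compound exposure lasted 7 days; 100% = DMSO vehicle control growth.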

IC50 [1]: 0.00584 µM | IC50 [2]: 0.00598 µM | IC50 [3]: 0.00608 µM | IC50 [4]: 0.00593 µM | IC50 [5]: 0.00516 µM
Structure (SMILES): CC(C)CC(NC(=O)C(Cc1ccccc1)NC(=O)c1cnccn1)B(O)O (configuration not stated) + Cc1cncc(-c2nc(NCCc3c[nH]c4ccccc34)c3ncn(C(C)C)c3n2)c1
viability, T/C (second compound 0.1 µM, first compound 0.000949 µM): 96.7% | viability, T/C (second compound 0.1 µM, first compound 0.003 µM): 103% | viability, T/C (second compound 0.1 µM, first compound 0.00949 µM): 13.8% | viability, T/C (second compound 0.1 µM, first compound 0.03 µM): 0.14% | viability, T/C (second compound 0.1 µM, first compound 0.0949 µM): 0.08% | viability, T/C (second compound 0.1 µM, first compound 0.3 µM): 0.23% | viability, T/C (second compound 0.316 µM, first compound 0.000949 µM): 101% | viability, T/C (second compound 0.316 µM, first compound 0.003 µM): 113% | viability, T/C (second compound 0.316 µM, first compound 0.00949 µM): 12% | viability, T/C (second compound 0.316 µM, first compound 0.03 µM): 1.1% | viability, T/C (second compound 0.316 µM, first compound 0.0949 µM): 0.12% | viability, T/C (second compound 0.316 µM, first compound 0.3 µM): 1.12% | viability, T/C (second compound 1 µM, first compound 0.000949 µM): 106% | viability, T/C (second compound 1 µM, first compound 0.003 µM): 110% | viability, T/C (second compound 1 µM, first compound 0.00949 µM): 13.4% | viability, T/C (second compound 1 µM, first compound 0.03 µM): 0.14% | viability, T/C (second compound 1 µM, first compound 0.0949 µM): 0.09% | viability, T/C (second compound 1 µM, first compound 0.3 µM): 0.67% | viability, T/C (second compound 3.16 µM, first compound 0.000949 µM): 103% | viability, T/C (second compound 3.16 µM, first compound 0.003 µM): 105% | viability, T/C (second compound 3.16 µM, first compound 0.00949 µM): 12.7% | viability, T/C (second compound 3.16 µM, first compound 0.03 µM): 1.05% | viability, T/C (second compound 3.16 µM, first compound 0.0949 µM): 0.7% | viability, T/C (second compound 3.16 µM, first compound 0.3 µM): 2.06% | viability, T/C (second compound 10 µM, first compound 0.000949 µM): 89.9% | viability, T/C (second compound 10 µM, first compound 0.003 µM): 87.8% | viability, T/C (second compound 10 µM, first compound 0.00949 µM): 7.45% | viability, T/C (second compound 10 µM, first compound 0.03 µM): 0.99% | viability, T/C (second compound 10 µM, first compound 0.0949 µM): 0.21% | viability, T/C (second compound 10 µM, first compound 0.3 µM): 1.28%

IC50 [1]: > 10 µM | IC50 [2]: > 10 µM | IC50 [3]: > 10 µM | IC50 [4]: > 10 µM | IC50 [5]: > 10 µM
Structure (SMILES): CC(C)c1c(-c2ccccc2)nc2c(C#N)c[nH]n2c1=O + CC(CO)NC(=O)c1cc(-c2ccc(Cl)cc2)nn(-c2cnn(C)c2)c1=O
viability, T/C [6]: 109% | viability, T/C [7]: 97.8% | viability, T/C [8]: 95.2% | viability, T/C [9]: 102% | viability, T/C [10]: 90.2% | viability, T/C [11]: 97.4% | viability, T/C [12]: 106% | viability, T/C [13]: 105% | viability, T/C [14]: 95.9% | viability, T/C [15]: 96.5% | viability, T/C [16]: 106% | viability, T/C [17]: 97.5% | viability, T/C [18]: 110% | viability, T/C [19]: 112% | viability, T/C [20]: 108% | viability, T/C [21]: 107% | viability, T/C [22]: 113% | viability, T/C [23]: 95.8% | viability, T/C [24]: 106% | viability, T/C [25]: 95.5% | viability, T/C [26]: 116% | viability, T/C [27]: 100% | viability, T/C [28]: 106% | viability, T/C [29]: 99.2% | viability, T/C [30]: 108% | viability, T/C [31]: 117% | viability, T/C [32]: 111% | viability, T/C [33]: 97.8% | viability, T/C [34]: 104% | viability, T/C [35]: 97.1%

IC50 [1]: > 10 µM | IC50 [2]: > 10 µM | IC50 [3]: > 10 µM | IC50 [4]: > 10 µM | IC50 [5]: > 10 µM
Structure (SMILES): CC1COCCN1c1cc(C2(S(C)(=N)=O)CC2)nc(-c2ccnc3[nH]ccc23)n1 (configuration not stated) + CC(CO)NC(=O)c1cc(-c2ccc(Cl)cc2)nn(-c2cnn(C)c2)c1=O
viability, T/C [6]: 116% | viability, T/C [7]: 113% | viability, T/C [8]: 101% | viability, T/C [9]: 92% | viability, T/C [10]: 86.2% | viability, T/C [11]: 69.1% | viability, T/C [12]: 97.1% | viability, T/C [13]: 113% | viability, T/C [14]: 105% | viability, T/C [15]: 90.1% | viability, T/C [16]: 81.4% | viability, T/C [17]: 70.2% | viability, T/C [18]: 111% | viability, T/C [19]: 105% | viability, T/C [20]: 116% | viability, T/C [21]: 98.2% | viability, T/C [22]: 78.2% | viability, T/C [23]: 67.6% | viability, T/C [24]: 105% | viability, T/C [25]: 104% | viability, T/C [26]: 107% | viability, T/C [27]: 89.4% | viability, T/C [28]: 83.5% | viability, T/C [29]: 71.8% | viability, T/C [30]: 118% | viability, T/C [31]: 119% | viability, T/C [32]: 110% | viability, T/C [33]: 101% | viability, T/C [34]: 81.2% | viability, T/C [35]: 72.5%

IC50 (curve of compound): 6.68 µM and 4.7 µM and 3.46 µM
Structure (SMILES): COc1ccc([C@@H](O)c2cc(-c3ncnc4cc(N5CCOCC5)ccc34)c(F)cc2Cl)nn1
viability, T/C (compound 0.0316 µM): 96.5% and 101% and 108% | viability, T/C (compound 0.1 µM): 106% and 98.1% and 104% | viability, T/C (compound 0.316 µM): 88.7% and 93.8% and 94.7% | viability, T/C (compound 1 µM): 76.4% and 70% and 71.3% | viability, T/C (compound 3.16 µM): 58.4% and 59.2% and 52.1% | viability, T/C (compound 10 µM): 45.5% and 37.5% and 38.9%
